Reference: paper PMC11124394, “Novel Combretastatin A-4 Analogs—Design, Synthesis, and Antiproliferative and Anti-Tubulin Activity” (Molecules, 2024)
Where two headings read alike, the source gives them in different places.

Experiments:
Type in all cases: cell-based
A549 (lung cancer) cells = experiment: SRB cytotoxicity assay, A549; details: Homo sapiens, read-out: Cytotoxicity IC50, A549
Procedure: (§1) The antiproliferative activity was tested on human primary (SW480) and metastatic (SW620) colon cancer, human prostate cancer (PC3), human liver cancer (HepG2), human breast cancer (MDA), human lung cancer (A549), and human immortalized keratinocyte (HaCaT) cell lines obtained from the American Type Culture Collection (ATCC, Rockville, MD, USA). The cells were cultured in EMEM (SW480 and SW620), RPMI 1640 (PC3) or DMEM High Glucose (HepG2, MDA, A549, and HaCaT) with stable glutamine supplemented with 10% heat-inactivated fetal bovine serum (FBS), penicillin (100 U/mL), and streptomycin (100 µg/mL) in 37 °C and 5% CO2/95% air humified incubator. The cells were grown until 80–90% confluence and then were harvested with 0.25% trypsin and used for the experiments. All the reagents for the cell culture were provided by VWR Chemicals.
(§2) Cytotoxicity was tested with the sulforhodamine B (SRB) assay according to the National Cancer Institute protocol with slight modifications. Briefly, cells were seeded on a 96-well plate (5 × 10^3 cells per well). After 24 h incubation, zero-time control cells were fixed with TCA (final concentration 5%) for 1 h at 4 °C. […] The untreated cells were used as the control. After incubation, the cells were fixed with TCA (final concentration 5%) for 1 h at 4 °C, gently washed 4 times with tap water, and left for drying. The dried fixed cells were incubated with SRB solution (0.05% SRB in 1% acetic acid) for 30 min rt, washed four times with 1% acetic acid, and left for drying. The dried cells were dissolved in 10 mM Tris-base solution (pH 10.5) and the absorbance was read at 510 nm.
(§3) The cell viability was presented as a percent of SRB reduction in the treated cells versus that in control cells. The mean absorbance for control cells was assumed as 100%. No-cell control (blank well) absorbance was assumed as 0%, unless the compound was cytostatic, then 0% referred to zero-time control. The IC50 values were calculated using the GraphPad Prism 10.1.2 (324) (USA) software. The most cytotoxic compounds (8 and 20) were selected for further in vitro experiments.

[1] = test system: PC3 (prostate cancer) cells; experiment: SRB cytotoxicity assay, PC3; details: Homo sapiens, read-out: Cytotoxicity IC50, PC3
Procedure: as §1, §2, §3

[2] = SRB cytotoxicity assay, HaCaT; details: human, 48 h culture, mean ± SD, at least three independent experiments, compounds marked * : low solubility, real values might be lower
Procedure: as §1, §2, §3

[3] = test system: SW620 (metastatic colon cancer) cells; experiment: SRB cytotoxicity assay, SW620; details: Homo sapiens, read-out: Cytotoxicity IC50, SW620
Procedure: as §1, §2, §3

[4] = test system: MDA (breast cancer) cells; experiment: SRB cytotoxicity assay, MDA; details: Homo sapiens, read-out: Cytotoxicity IC50, MDA
Procedure: as §1, §2, §3

[5] = test system: HepG2 (liver cancer) cells; experiment: SRB cytotoxicity assay, HepG2; details: Homo sapiens, read-out: Cytotoxicity IC50, HepG2
Procedure: as §1, §2, §3

[6] = test system: SW480 (primary colon cancer) cells; experiment: SRB cytotoxicity assay, SW480; details: Homo sapiens, read-out: Cytotoxicity IC50, SW480
Procedure: as §1, §2, §3

[7] = test system: six human cancer cell lines (SW480, SW620, PC3, HepG2, MDA, A549) and HaCaT; experiment: SRB cytotoxicity assay, whole panel; details: cell line panel
Procedure: The antiproliferative properties of the studied combretastatin derivatives were tested on six human cancer cell lines, including primary colon (SW480), metastatic colon (SW620), prostate (PC3), liver (HepG2), breast (MDA), and lung (A549) cancer cells, and non-tumor human immortalized keratinocyte cell line (HaCaT) using the sulforhodamine B (SRB) assay. […] No selectivity was observed against the tumor cell lines when compared to that against the non-tumor cell line. Nevertheless, these values were much higher than the IC50 of the reference compounds (<0.2 μM).
as §1, §2, §3

[8] = A549, SRB assay, 48 h culture, mean ± SD, at least three independent experiments, compounds marked * : low solubility, real values might be lower
[9] = SRB assay, 48 h culture, mean ± SD, at least three independent experiments, compounds marked * : low solubility, real values might be lower
[10] = HaCaT immortalized keratinocyte cells (non-tumor cell line)
[11] = SW-620, SRB assay, 48 h culture, mean ± SD, at least three independent experiments, compounds marked * : low solubility, real values might be lower
[12] = HepG2, SRB assay, 48 h culture, mean ± SD, at least three independent experiments, compounds marked * : low solubility, real values might be lower
[13] = SW480, SRB assay, 48 h culture, mean ± SD, at least three independent experiments, compounds marked * : low solubility, real values might be lower

Structure (SMILES) | IC50 (A549 (lung cancer) cells; [8]) [µM] | IC50 [1, 9] [µM] | IC50 at 48 h [2, 10] [µM] | IC50 [3, 11] [µM] | IC50 [4, 9] [µM] | IC50 [5, 12] [µM] | IC50 [6, 13] [µM] | Cytotoxicity (in words) [7] | IC50 (A549 (lung cancer) cells; A549, 48 h) [µM] | IC50 ([1]; 48 h) [µM] | IC50 at 48 h ([2]; non-tumor cell line) [µM] | IC50 ([3]; SW-620, 48 h) [µM] | IC50 ([4]; 48 h) [µM] | IC50 ([5]; HepG2, 48 h) [µM] | IC50 ([6]; SW480, 48 h) [µM]
C#CCOC(=O)/C(=C/c1cc(OC)c(OC)c(OC)c1)c1ccc(OC)c(Br)c1 [Compound 6] | > 100 | > 100 | > 100 | > 100 | > 100 | > 100 | > 100 | – | – | – | – | – | – | – | –
COc1ccc(/C(=C\c2cc(OC)c(OC)c(OC)c2)C(=O)O)cc1Br [Compound 3] | > 100 | > 100 | > 100 | > 100 | > 100 | > 100 | > 100 | does not have any anticancer potential | – | – | – | – | – | – | –
COc1cc([C@@H]2c3cc4c(cc3[C@H](O)[C@H]3COC(=O)[C@H]23)OCO4)cc(OC)c1OC [podophyllotoxin, reference compound] | – | – | – | – | – | – | – | – | 0.0247 ± 0.0039 | 0.0129 ± 0.0015 | 0.0316 ± 0.004 | 0.0292 ± 0.0078 | 0.0293 ± 0.0028 | 0.0258 ± 0.0056 | 0.0444 ± 0.0022
COc1ccc(/C(=C\c2cc(OC)c(OC)c(OC)c2)C(=O)NCc2cccc(Cl)c2)cc1Br [Compound 17] | > 100 | > 100 | > 100 | > 100 | > 100 | > 100 | > 100 | – | – | – | – | – | – | – | –
CCCN(CCC)C(=O)/C(=C/c1cc(OC)c(OC)c(OC)c1)c1ccc(OC)c(Br)c1 [Compound 19] | > 100 | > 100 | > 100 | > 100 | > 100 | > 100 | > 100 | did not show any cytotoxicity | – | – | – | – | – | – | –
C#CCNC(=O)/C(=C/c1cc(OC)c(OC)c(OC)c1)c1ccc(OC)c(Br)c1 [Compound 12] | > 100 | > 100 | > 100 | > 100 | > 100 | > 100 | > 100 | – | – | – | – | – | – | – | –
COc1ccc(/C(=C\c2cc(OC)c(OC)c(OC)c2)C(=O)N2CCOCC2)cc1Br [Compound 21] | > 100 | > 100 | > 100 | > 100 | > 100 | > 100 | > 100 | – | – | – | – | – | – | – | –
COc1ccc(/C(=C\c2cc(OC)c(OC)c(OC)c2)C(=O)NCc2ccccc2Cl)cc1Br [Compound 16] | 92.8 ± 7.7 | > 100 | > 100 | > 100 | 99.8 ± 3.9 | > 100 | > 100 | – | – | – | – | – | – | – | –
COc1ccc(/C(=C\c2cc(OC)c(OC)c(OC)c2)C(=O)OCCCCCCBr)cc1Br [Compound 9] | > 100 | > 100 | > 100 | > 100 | > 100 | > 100 | > 100 | did not show any cytotoxicity | – | – | – | – | – | – | –
COc1cc2c(c(OC)c1OC)-c1ccc(OC)c(=O)cc1[C@@H](NC(C)=O)CC2 [colchicine, reference compound] | – | – | – | – | – | – | – | – | 0.094 ± 0.009 | 0.118 ± 0.047 | 0.104 ± 0.012 | 0.13 ± 0.089 | 0.11 ± 0.015 | 0.107 ± 0.025 | 0.166 ± 0.065
CCOC(=O)/C(=C/c1cc(OC)c(OC)c(OC)c1)c1ccc(OC)c(Br)c1 [Compound 5] | 46.6 ± 12.1 | 43.2 ± 10.2 | 45 ± 7.2 | 57.5 ± 3.9 | 45.2 ± 5.5 | 42.1 ± 10.2 | 73.6 ± 8.4 | – | – | – | – | – | – | – | –
COc1ccc(/C(=C\c2cc(OC)c(OC)c(OC)c2)C(=O)NCc2ccccc2[N+](=O)[O-])cc1Br [Compound 15] | > 100 | > 100 | > 100 | > 100 | > 100 | > 100 | > 100 | – | – | – | – | – | – | – | –
COc1ccc(/C(=C\c2cc(OC)c(OC)c(OC)c2)C(=O)OCc2ccccc2)cc1Br [Compound 7] | > 100 | > 100 | > 100 | > 100 | > 100 | > 100 | > 100 | – | – | – | – | – | – | – | –
CNC(=O)/C(=C/c1cc(OC)c(OC)c(OC)c1)c1ccc(OC)c(Br)c1 [Compound 10] | 49.3 ± 16.3 | 44.9 ± 12.1 | 55.3 ± 17 | 46 ± 11.4 | 55.5 ± 20.3 | 50.5 ± 10.5 | 52.2 ± 17.9 | – | – | – | – | – | – | – | –
CCCCNC(=O)/C(=C/c1cc(OC)c(OC)c(OC)c1)c1ccc(OC)c(Br)c1 [Compound 11] | 65.1 ± 17.3 | 67.2 ± 18.6 | 58.6 ± 22.2 | 50.8 ± 14.5 | 61.4 ± 21.8 | 50.5 ± 17.5 | 50.2 ± 11.2 | – | – | – | – | – | – | – | –
COc1ccc(/C(=C\c2cc(OC)c(OC)c(OC)c2)C(=O)NCc2ccc(Cl)cc2)cc1Br [Compound 18] | 62.2 ± 8.6 | > 100 | > 100 | > 100 | 66.7 ± 6.4 | 89.6 ± 24.4 | > 100 | – | – | – | – | – | – | – | –
COc1ccc(/C(=C\c2cc(OC)c(OC)c(OC)c2)C(=O)NCc2ccccc2)cc1Br [Compound 13] | 82.1 ± 13.9 | 55.8 ± 23.7 | 68.5 ± 4.8 | 62.4 ± 3.1 | 59.8 ± 18.8 | 56.2 ± 22.2 | 59.8 ± 23 | – | – | – | – | – | – | – | –
COc1ccc(/C(=C\c2cc(OC)c(OC)c(OC)c2)C(=O)Nc2ccccc2)cc1Br [Compound 14] | > 100 | > 100 | > 100 | > 100 | > 100 | > 100 | > 100 | – | – | – | – | – | – | – | –
COC(=O)/C(=C/c1cc(OC)c(OC)c(OC)c1)c1ccc(OC)c(Br)c1 [Compound 4] | 53 ± 10.8 | 65.9 ± 16.1 | 68.3 ± 19.6 | 61.8 ± 11.4 | 55.2 ± 17.3 | 63.7 ± 12.6 | 57.6 ± 9.4 | – | – | – | – | – | – | – | –
COc1ccc(/C(=C\c2cc(OC)c(OC)c(OC)c2)C(=O)N(Cc2ccccc2)Cc2ccccc2)cc1Br [Compound 22] | > 100 | > 100 | > 100 | > 100 | > 100 | > 100 | > 100 | – | – | – | – | – | – | – | –
